# Results reported in patent US10934298B2, “Substituted pyrazolo[1,5-a]pyrimidines for the treatment of medical disorders” (BIAL—BioTech Investments, Inc., priority 2016, dated 2021).
# Target: T1, glucocerebrosidase (Gcase) (Homo sapiens, UniProt P04062)
# T1 construct: micellar solution containing 10 nM GCase and 100 nM saposin C
# T1 sequence (P04062 40-536): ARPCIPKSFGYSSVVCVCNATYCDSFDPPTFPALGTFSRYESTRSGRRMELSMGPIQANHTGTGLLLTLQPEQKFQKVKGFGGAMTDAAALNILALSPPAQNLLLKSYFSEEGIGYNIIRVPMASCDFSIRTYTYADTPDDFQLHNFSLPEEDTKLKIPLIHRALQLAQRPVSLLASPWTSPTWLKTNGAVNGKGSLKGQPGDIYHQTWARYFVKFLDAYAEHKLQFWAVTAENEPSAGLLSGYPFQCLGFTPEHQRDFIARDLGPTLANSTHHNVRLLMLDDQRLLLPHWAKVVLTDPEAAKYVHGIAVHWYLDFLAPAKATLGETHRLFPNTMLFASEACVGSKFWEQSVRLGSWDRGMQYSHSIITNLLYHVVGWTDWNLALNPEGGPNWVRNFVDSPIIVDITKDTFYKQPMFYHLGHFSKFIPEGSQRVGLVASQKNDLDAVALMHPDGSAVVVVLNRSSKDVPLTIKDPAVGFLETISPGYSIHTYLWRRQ
# Assay: Glucocerebrosidase (Gcase) activation assay with 4-methylumbelliferyl-beta-D-glucopyranoside substrate, saposin C and phosphatidylserine/triton micelles, fluorescence readout
# Type: biochemical
# Summary of the method: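 Fluorescence (ex 365 nm, em 440 nm) read after glycine pH 12.5 stop of a 15 min room-temperature reaction. GCase 10 nM plus saposin C 100 nM in PS/triton micelles, pH 4.7, preincubated 30 min with compound; substrate solution held 2 mM 4-MU-beta-glucoside. Screened at 1.0 and 0.1 μM; 8-point, 3-fold curves from 5 μM top.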
"Percent Gcase Activation, 0.1 μM Test Compound (0.1 μM test compound)","Percent Gcase Activation, 1 μM Test Compound (1 μM test compound)","Percent Gcase Activation, 0.1 μM Test Compound (test compound at 0.1 μM)","Percent Gcase Activation, 1 μM Test Compound (test compound at 1.0 μM)",SMILES,further results
* (less than 10% Gcase activation),+++ (Gcase activation greater than 60%),–,–,Cc1cc(-c2ccc(C#N)nc2)nc2c(C(=O)NC(C)(C)C3CC3)cnn12 [III-370],–
*** (greater than 20% Gcase activation),+++ (Gcase activation greater than 60%),–,–,Cc1cc(-c2ccc(N3CCOCC3)c(F)c2)nc2c(C(=O)NC(C)C(F)(F)F)cnn12 (centres unmarked) [III-299],–
*** (greater than 20% Gcase activation),+++ (Gcase activation greater than 60%),–,–,Cc1cc(-c2cccnc2C#N)nc2c(C(=O)N[C@@H](C3CC3)C(F)(F)F)cnn12 [III-366],–
–,–,–,–,Cc1cc(-c2ccccn2)nc2c(C(=O)NC(C)C(F)(F)F)cnn12 (centres unmarked) [III-50],"Percent Gcase Activation, 0.1 μM Test Compound (0.1 μM test compound, Table 3A): ** (Gcase activation in the range of 10% up to 20%); Percent Gcase Activation, 1 μM Test Compound (1 μM test compound, Table 3A): +++ (Gcase activation greater than 60%)"
* (less than 10% Gcase activation),+ (less than 30% Gcase activation),–,–,Cc1ncccc1-c1cc(C)n2ncc(C(=O)N[C@H](C3CC3)C(F)(F)F)c2n1 [III-376],–
–,–,*** (greater than 20% Gcase activation),+++ (Gcase activation greater than 60%),Cc1cc(-c2cnccc2F)nc2c(C(=O)NC(C3CC3)C(F)(F)F)cnn12 (centres unmarked) [III-124],–
–,–,*** (greater than 20% Gcase activation),+++ (Gcase activation greater than 60%),Cc1cc(-c2ccc3scnc3c2)nc2c(C(=O)N[C@H](C)C3CC3)cnn12 [III-193],–
*** (greater than 20% Gcase activation),+++ (Gcase activation greater than 60%),–,–,Cc1ncc(-c2cc(C)n3ncc(C(=O)N[C@H](C4CC4)C(F)(F)F)c3n2)cc1F [III-380],–
–,–,*** (greater than 20% Gcase activation),+++ (Gcase activation greater than 60%),Cc1cc(-c2cccc(Cl)n2)nc2c(C(=O)NC(C3CC3)C(F)(F)F)cnn12 (centres unmarked) [III-237],–
–,–,*** (greater than 20% Gcase activation),+++ (Gcase activation greater than 60%),Cc1cc(-c2cncc(Cl)c2)nc2c(C(=O)N[C@@H](C)C(F)(F)F)cnn12 [III-202],–
–,–,* (less than 10% Gcase activation),+++ (Gcase activation greater than 60%),Cc1ccncc1-c1cc(C)n2ncc(C(=O)NC(C3CC3)C(F)(F)F)c2n1 (centres unmarked) [III-274],–
–,–,–,–,Cc1cc(-c2cccc(OC3CC3)c2)nc2c(C(=O)NC(C)C(F)(F)F)cnn12 (centres unmarked) [III-77],"Percent Gcase Activation, 0.1 μM Test Compound (0.1 μM test compound, Table 3A): *** (greater than 20% Gcase activation); Percent Gcase Activation, 1 μM Test Compound (1 μM test compound, Table 3A): +++ (Gcase activation greater than 60%)"
–,–,* (less than 10% Gcase activation),+++ (Gcase activation greater than 60%),Cc1cc(N2CCNC2=O)nc2c(C(=O)NC(C3CC3)C(F)(F)F)cnn12 (centres unmarked) [III-228],–
–,–,*** (greater than 20% Gcase activation),+++ (Gcase activation greater than 60%),COc1cc(F)ccc1-c1cc(C)n2ncc(C(=O)N[C@@H](C)C3CC3)c2n1 [III-146],–
*** (greater than 20% Gcase activation),+++ (Gcase activation greater than 60%),–,–,Cc1cnoc1-c1cc(C)n2ncc(C(=O)N[C@H](C3CC3)C(F)(F)F)c2n1 [III-344],–
*** (greater than 20% Gcase activation),+++ (Gcase activation greater than 60%),–,–,Cc1cc(-c2ccc(F)o2)nc2c(C(=O)N[C@H](C)C(F)(F)F)cnn12 [III-334],–
–,–,*** (greater than 20% Gcase activation),+++ (Gcase activation greater than 60%),Cc1cc(-c2occc2C#N)nc2c(C(=O)NC(C3CC3)C(F)(F)F)cnn12 (centres unmarked) [III-250],–
–,–,–,–,Cc1cc(-c2cccc(C(N)=O)c2)nc2c(C(=O)NC(C3CC3)C(F)(F)F)cnn12 (centres unmarked) [III-73],"Percent Gcase Activation, 0.1 μM Test Compound (0.1 μM test compound, Table 3A): *** (greater than 20% Gcase activation); Percent Gcase Activation, 1 μM Test Compound (1 μM test compound, Table 3A): +++ (Gcase activation greater than 60%)"
–,–,*** (greater than 20% Gcase activation),+++ (Gcase activation greater than 60%),Cc1cc(-c2cncc(Cl)c2)nc2c(C(=O)N[C@@H](C3CC3)C(F)(F)F)cnn12 [III-121],–
–,–,*** (greater than 20% Gcase activation),+++ (Gcase activation greater than 60%),Cc1cc(-c2ccon2)nc2c(C(=O)N[C@H](C3CC3)C(F)(F)F)cnn12 [III-240],–
–,–,*** (greater than 20% Gcase activation),+++ (Gcase activation greater than 60%),Cc1cc(-c2ccc(F)cn2)nc2c(C(=O)NC(C3CC3)C(F)(F)F)cnn12 (centres unmarked) [III-204],–
–,–,*** (greater than 20% Gcase activation),+++ (Gcase activation greater than 60%),Cc1cc(-c2cccnc2F)nc2c(C(=O)NC(C3CC3)C(F)(F)F)cnn12 (centres unmarked) [III-113],–
–,–,*** (greater than 20% Gcase activation),+++ (Gcase activation greater than 60%),Cc1cc(-c2cccc3ncsc23)nc2c(C(=O)NC(C)C(F)(F)F)cnn12 (centres unmarked) [III-221],–
*** (greater than 20% Gcase activation),+++ (Gcase activation greater than 60%),–,–,Cc1cc(C#N)c(-c2cc(C)n3ncc(C(=O)N[C@@H](C)C(F)(F)F)c3n2)s1 [III-348],–
*** (greater than 20% Gcase activation),+++ (Gcase activation greater than 60%),–,–,Cc1cc(-c2cncc(Cl)c2)nc2c(C(=O)NC(C)(C)C3CC3)cnn12 [III-292],–
–,–,*** (greater than 20% Gcase activation),+++ (Gcase activation greater than 60%),Cc1cc(-c2ccc(F)cc2)nc2c(C(=O)NC(C3CC3)C(F)(F)F)cnn12 (centres unmarked) [III-163],–
*** (greater than 20% Gcase activation),+++ (Gcase activation greater than 60%),–,–,Cc1cnc(F)c(-c2cc(C)n3ncc(C(=O)N[C@H](C4CC4)C(F)(F)F)c3n2)c1 [III-374],–
–,–,*** (greater than 20% Gcase activation),+++ (Gcase activation greater than 60%),Cc1cc(-c2cncc(F)c2)nc2c(C(=O)N[C@@H](C3CC3)C(F)(F)F)cnn12 [III-127],–
–,–,*** (greater than 20% Gcase activation),+++ (Gcase activation greater than 60%),Cc1cc(-c2ccns2)nc2c(C(=O)N[C@@H](C3CC3)C(F)(F)F)cnn12 [III-101],–
–,–,–,–,Cc1cc(C)n2ncc(C(=O)Nc3ccc4c(c3)OCO4)c2n1 [IV-4],"Percent Gease Activation, 0.1 μM Test Compound (0.1 μM test compound, Table 4): * (less than 10% Gcase activation); Percent Gease Activation, 1 μM Test Compound (1 μM test compound, Table 4): ++ (Gcase activation in the range of 30% up to 60%)"

SMILES,"Percent Gcase Activation, 0.1 μM Test Compound (0.1 μM test compound)","Percent Gcase Activation, 1 μM Test Compound (1 μM test compound)","Percent Gcase Activation, 0.1 μM Test Compound (test compound at 0.1 μM)","Percent Gcase Activation, 1 μM Test Compound (test compound at 1.0 μM)",further results
Cc1cc(-c2ccc(C#N)nc2)nc2c(C(=O)N[C@H](C3CC3)C(F)(F)F)cnn12 [III-367],** (Gcase activation in the range of 10% up to 20%),+++ (Gcase activation greater than 60%),–,–,–
Cc1cc(N2CCC(C)(C)C2=O)nc2c(C(=O)NC(C3CC3)C(F)(F)F)cnn12 (centres unmarked) [III-328],** (Gcase activation in the range of 10% up to 20%),+++ (Gcase activation greater than 60%),–,–,–
Cc1cc(-c2ccc(F)cc2C#N)nc2c(C(=O)N[C@H](C)C3CC3)cnn12 [III-153],–,–,** (Gcase activation in the range of 10% up to 20%),+++ (Gcase activation greater than 60%),–
Cc1cc(N2CC(C(C)C)OC2=O)nc2c(C(=O)NC(C3CC3)C(F)(F)F)cnn12 (centres unmarked) [III-316],** (Gcase activation in the range of 10% up to 20%),+++ (Gcase activation greater than 60%),–,–,–
Cc1cc(N2CC(C)(C)NC2=O)nc2c(C(=O)NC(C3CC3)C(F)(F)F)cnn12 (centres unmarked) [III-319],** (Gcase activation in the range of 10% up to 20%),+++ (Gcase activation greater than 60%),–,–,–
Cc1cc(-c2ccccn2)nc2c(C(=O)NC(C)(C)C(F)(F)F)cnn12 [III-408],** (Gcase activation in the range of 10% up to 20%),+++ (Gcase activation greater than 60%),–,–,–
Cc1cc(-c2ccc(F)cc2C#N)nc2c(C(=O)N[C@H](C)C(F)(F)F)cnn12 [III-155],–,–,* (less than 10% Gcase activation),++ (Gcase activation in the range of 30% up to 60%),–
